Results: patent publication US5594009A, “Fused pyrrolocarbazoles” (priority 1995, dated 1997)

System: choline acetyltransferase (ChAT) activity in dissociated rat embryonic spinal cord culture
Experiment: Spinal Cord ChAT Activity Assay
Type: cell-based
Details: ChAT measured after 48 hours

| Compound | Spinal Cord ChAT Activity, % of Control, untreated cultures |
| --- | --- |
| 2-Chloro-6H, 7H, 12H, 13H-indeno[2,3-a]pyrrolo[3,4-c]carbazole-5(5H)one and 2-chloro-5H, 6H, 12H, 13H-indeno[2,3-a]pyrrolo[3,4-c]carbazole-7(7H)one [Compound Ia-2] | 161 % of Control |
| 3-Fluoro6H, 7H, 12H, 13H-indeno[2,3-a]pyrrolo[3,4-c]carbazole-5(5H)one and 3-fluoro-5H, 6H, 12H, 13H-indeno[2,3-a]pyrrolo[3,4-c]carbazole-7((7H)one [Compound I-8] | 200 % of Control |
| Cn1c2ccccc2c2c3c(c4c(c21)Cc1ccccc1-4)C(=O)NC3=O [Compound I-4, 13-Methyl-6H, 12H-indeno[2,3-a]pyrrolo[3,4-c]carbazole-5,7(5H, 7H)-dione] | 124 % of Control |
| O=C1NC(=O)c2c1c1c(c3[nH]c4ccc(Cl)cc4c23)Cc2ccccc2-1 [Compound I-10, 3-Chloro-6H , 12H, 13H-indeno[2,3-a]pyrrolo[3,4-c]carbazole-5,7(5H, 7H)-dione] | 189 % of Control |
| COc1ccc2[nH]c3c4c(c5c(c3c2c1)CNC5=O)-c1ccccc1C4 [Compound I-13, 3-Methoxy-5H, 6H, 12H, 13H-Indeno[2,3-a]pyrrolo[3,4-c]carbazole-7(7H)one] | 217 % of Control |
| O=C1NCc2c3c(c4[nH]c5ccc(Br)cc5c4c21)CCc1ccccc1-3 [Compound I-18, 3-Bromo-12,13-dihydro-6H, 7H, 14H-naphthyl[3,4-a]pyrrolo[3,4-c]carbazole-5(5H)one] | 133 % of Control |
| O=C1NCc2c1c1c(c3[nH]c4ccc(Br)cc4c23)CCc2ccccc2-1 [Compound I-19, 3-Bromo-12,13-Dihydro-5H, 6H, 14H-naphthyl[3,4-a]pyrrolo[3,4-c]carbazole-7(7H)one] | 203 % of Control |
| CCOC(=O)C=Cc1ccc2[nH]c3c4c(c5c(c3c2c1)CNC5=O)-c1ccccc1C4 [Compound I-25, 3-(3-Ethyl propenoate)-5H,6H,12H,13H-indeno[2,3-a]pyrrolo[3,4-c]carbazole-7(7H)one] | 168 % of Control |
| O=C1NCc2c1c1c(c3[nH]c4ccc(-c5ccccc5)cc4c23)Cc2ccccc2-1 [Compound I-27, 3-Phenyl-5H,6H,12H,13H-indeno[2,3-a]pyrrolo[3,4-c]carbazole-7(7H)one] | 120 % of Control |
| O=c1[nH]c(=O)c2c1c1c3ccccc3[nH]c1c1c(=O)c3ccccc3c12 [Compound I-28, 12-Oxo-6H,13H-indeno[2,3-a]pyrrolo[3,4-c]carbazole-5,7(5H,7H)dione] | < 120 % of Control |
| O=C1NCc2c1c1c(c3[nH]c4ccc(C=Cc5ccncc5)cc4c23)Cc2ccccc2-1 [Compound I-33, 3-(2-(4-Pyridyl)ethenyl)-5H,6H,12H,13H-indeno[2,3-a]pyrrolo[3,4-c]carbazole-7(7H)-one] | 144 % of Control |
| N#CC=Cc1ccc2[nH]c3c4c(c5c(c3c2c1)CNC5=O)-c1ccccc1C4 [Compound I-35, 3-(2-Cyanoethenyl)-5H,6H,12H,13H-indeno[2,3-a]pyrrolo[3,4-c]carbazole-7(7H)one] | 121 % of Control |
| C#Cc1ccc2[nH]c3c4c(c5c(c3c2c1)CNC5=O)-c1ccccc1C4 [Compound I-36, 3-Ethynyl-5H,6H,12H,13H-indeno[2,3-a]pyrrolo[3,4-c]carbazole-7(7H)one] | 167 % of Control |
| CCCCCc1ccc2[nH]c3c4c(c5c(c3c2c1)C(=O)NC5=O)-c1ccccc1C4 [Compound I-37, 3-Pentyl-6H,12H,13H-indeno[2,3-a]pyrrolo[3,4-c]carbazole-5,7(5H,7H)dione] | < 120 % of Control |
| O=C1NC(O)c2c1c1c3ccccc3ccc1c1[nH]c3ccccc3c21 (stereo not drawn) [Compound I-38, 5-Hydroxy-12,13-dihydro-6H, 14H-naphthyl[3,4-a]pyrrolo[3,4-c]carbazole-7(7H)one] | 208 % of Control |
| O=C1NCc2c1c1c(c3[nH]c4ccc(C=CN5C(=O)c6ccccc6C5=O)cc4c23)Cc2ccccc2-1 [Compound I-39, 3-(2-(2-Phthalimido)ethenyl)-5H,6H,12H,13H-indeno[2,3-a]pyrrolo[3,4-c]carbazole-7(7H)-one] | 268 % of Control |
| O=C1NCc2c1c1c(c3[nH]c4ccc(I)cc4c23)Cc2ccccc2-1 [Compound I-40, 3-Iodo-5H, 6H, 12H, 13H-indeno[2,3-a]pyrrolo[3,4-c]carbazole-7(7H)-one] | 150 % of Control |
| O=C1NCc2c3c(c4[nH]c5ccc(C=Cc6ccccn6)cc5c4c21)Cc1ccccc1-3 [Compound I-41, 3-(2-(2-Pyridylethenyl))-6H,7H,12H,13H-indeno[2,3-a]pyrrolo[3,4-c]carbazole-5(5H)-one] | 122 % of Control |
| O=C1NCc2c1c1c3ccccc3[nH]c1c1sc3ccccc3c21 [Compound I-42, 6H, 7H, 12H-Benzo[b]thieno[2,3-a]pyrrolo[3,4-c]carbazole-5(5H)one] | 177 % of Control |
| O=C1NCc2c1c1c3ccccc3sc1c1[nH]c3ccccc3c21 [Compound I-43, 6H, 7H, 12H-Benzo[b]thieno[2,3-a]pyrrolo[3,4-c]carbazole-7(7H)one] | 138 % of Control |
| O=C1NCc2c1c1c(c3[nH]c4ccc(C=CI)cc4c23)Cc2ccccc2-1 [Compound I-44] | 127 % of Control |
| O=C1NC(=O)c2c1c1c(c3[nH]c4ccccc4c23)Cc2cc(Br)ccc2-1 [Compound Ia-3, 10-bromo-6H, 12H, 13H-indeno[2,3-a]pyrrolo[3,4-c]carbazole-5,7(5H, 7H)dione] | 138 % of Control |
| O=C1NC(=O)c2c1c1c(c3[nH]c4ccccc4c23)CCc2cc(F)ccc2-1 [Compound Ia-4, 10-Fluoro-12,13-dihydro-6H, 14H-naphthyl[3,4-a]pyrrolo[3,4-c]carbazole-5,7(5H, 7H)dione] | < 120 % of Control |
| O=C1NC(=O)c2c1c1c(c3[nH]c4ccccc4c23)CCc2cc(Br)ccc2-1 [Compound Ia-5, 10-Bromo-12,13-dihydro-6H, 14H-naphthyl[3,4,-a]pyrrolo[3,4-c]carbazole-5,7(5H, 7H)dione] | 132 % of Control |
| O=C1NC(=O)c2c1c1c(c3[nH]c4ccccc4c23)CCc2cc(C=Cc3ccccn3)ccc2-1 [Compound Ia-6] | 139 % of Control |
| O=C1NC(=O)c2c1c1c(c3[nH]c4ccccc4c23)CCc2cc(CCc3ccccn3)ccc2-1 [Compound Ia-7] | < 120 % of Control |
| Cc1cccc2c1[nH]c1c3c(c4c(c12)C(=O)NC4=O)-c1ccccc1C3 [Compound Ib-1, 1-Methyl-12H, 13H-indeno[2,3-a]pyrrolo[3,4-c]carbazole-6H-5,7(5H, 7H)-dione] | 138 % of Control |
| O=C1NC(=O)c2c1c1c(c3[nH]c4ccccc4c23)Cc2ccc(Br)cc2-1 [Compound Ib-2] | 153 % of Control |
| mixture of 13-Methyl-6H, 7H, 12H-indeno[2,3-a]pyrrolo[3,4-c]carbazole-5(5H)one and 13-methyl-5H, 6H, 12H-indeno[2,3-a]pyrrolo[3,4,-c]carbazole-7(7H)one [Compound I-5] | 137 % of Control |

System: ChAT activity of basal forebrain cultures
Experiment: Basal Forebrain ChAT Activity Assay
Type: cell-based, rat
Details: 1000 nM
Protocol: Fused pyrrolocarbazoles were tested for the ability to increase ChAT activity of basal forebrain cultures.
Methods: The basal forebrain was dissected from rat embryos (day 17 or 18 embryos) and the cells were dissociated with a neutral protease (Dispase™, Collaborative Research). Neurons were plated at a density of 5×10^4 cells/well (1.5×10^5 cells/cm^2) in poly-1-ornithine and laminin coated plates. Cells were cultured in serum-free N2 medium containing 0.05% BSA at 37° C. in a humidified atmosphere, 5% CO2 /95% air. ChAT activity was assessed 5 days after plating by using the ChAT assay as described in Example III(A)(1).

| Compound | ChAT Activity (% of Control) |
| --- | --- |
| C#Cc1ccc2[nH]c3c4c(c5c(c3c2c1)CNC5=O)-c1ccccc1C4 [Compound I-36, 3-Ethynyl-5H,6H,12H,13H-indeno[2,3-a]pyrrolo[3,4-c]carbazole-7(7H)one] | inactive |

Same assay, conditions: Rattus norvegicus, 120 h; 100 nM; read-out: ChAT Activity (% of Control)

| Compound | activity at 0.1 µM |
| --- | --- |
| C#Cc1ccc2[nH]c3c4c(c5c(c3c2c1)CNC5=O)-c1ccccc1C4 [Compound I-36, 3-Ethynyl-5H,6H,12H,13H-indeno[2,3-a]pyrrolo[3,4-c]carbazole-7(7H)one] | 122% |

Same assay, conditions: Rattus norvegicus, 120 h; 250 nM; read-out: ChAT Activity (% of Control)

| Compound | activity at 0.25 µM |
| --- | --- |
| C#Cc1ccc2[nH]c3c4c(c5c(c3c2c1)CNC5=O)-c1ccccc1C4 [Compound I-36, 3-Ethynyl-5H,6H,12H,13H-indeno[2,3-a]pyrrolo[3,4-c]carbazole-7(7H)one] | 131% |

Same assay, conditions: Rattus norvegicus, 120 h; 500 nM; read-out: ChAT Activity (% of Control)

| Compound | activity at 0.5 µM |
| --- | --- |
| C#Cc1ccc2[nH]c3c4c(c5c(c3c2c1)CNC5=O)-c1ccccc1C4 [Compound I-36, 3-Ethynyl-5H,6H,12H,13H-indeno[2,3-a]pyrrolo[3,4-c]carbazole-7(7H)one] | 123% |
